Literature values as cited in US7910613B2, “2-acylaminothiazole derivatives” (H. Lundbeck A/S, priority 2004, dated 2011).
Read-outs that look alike come from different tables or passages of the source.

Columns and labels:
mice [1] = conditions: mouse forced swimming test
mice [2] = conditions: for total immobility time: mouse tail suspension test
[3] = system: MPTP treated mice and 6-OHDA-lesioned rats
[4] = system: unilateral 6-OHDA (6-hydroxydopamine) lesioned mice and rats; conditions: elicited by a subtreshold dose of levodopa
[5] = mice previously screened for having high immobility time

Compound	immobility time (mice [1])	total immobility time (mice [2])	contralateral rotations [4]	immobility (mice [2]; [5])	further results
Nc1nc(Cl)nc2c1ncn2[C@@H]1O[C@H](CO)[C@@H](O)[C@H]1O [2-chloroadenosine]	increased immobility time	–	–	–	–
CCn1c(=O)c2c(nc(/C=C/c3ccc(OC)c(OC)c3)n2C)n(CC)c1=O [KW-6002, 8-[(1E)-2-(3,4-dimethoxyphenyl)ethenyl]-1,3-diethyl-3,7-dihydro-7-methyl-1H-purine-2,6-dione]	–	reduced the total immobility time	enhance contralateral rotations	–	motor impairment induced by MPTP (non-human primates): significantly improves motor impairment; dyskinesias (non-human primates; MPTP): without causing dyskinesias; functional loss of dopaminergic nerve terminals in the striatum [3]: prevented functional loss of dopaminergic nerve terminals in the striatum; gliosis normally induced around degenerating neurons [3]: prevented gliosis
Nc1nc2c(cnn2CCc2ccccc2)c2nc(-c3ccco3)nn12 [SCH58261, 2-(2-furanyl)-7-(2-phenylethyl)-7H-pyrazolo[4,3-e][1,2,4]triazolo[1,5-c]pyrimidin-5-amine]	–	reduced the total immobility time	enhance contralateral rotations	reduce immobility	immobility (mice [2]; mice selectively bred for their helplessness): reduced immobility
Nc1nc(NCCc2ccc(O)cc2)nc2nc(-c3ccco3)nn12 [ZM241385, 4-(2-[7-amino-2-(2-furyl)[1,2,4]triazolo[2,3-a][1,3,5]triazin-5-ylamino]-ethyl)phenol]	–	–	–	reduce immobility	–
Nc1ncnc2c1ncn2[C@@H]1O[C@H](CO)[C@@H](O)[C@H]1O [adenosine]	increased immobility time	–	–	–	–
